# Assay results reported in BindingDB's records for doi:10.1016/j.ejmech.2019.02.016 (National Health Research Institutes, 2019).
# pEC50: −log10 of the molar value.
# Assay: Inhibition of NS5A in HCV genotype 1b infected in human HuH7 replicon cells assessed as reduction in subgenomic viral RNA replication treated for 2 days followed by compound washout and subsequent compound dosing measured after 1 day by SEAP reporter gene assay
row,pEC50,SMILES
1,7.40,O=C(N[C@H](C(=O)N1CCC[C@H]1c1ncc(-c2ccc(-c3ccc(-c4cnc([C@@H]5CCCN5C(=O)[C@H](NC(=O)C5CCCCC5)c5ccccc5)s4)cc3)cc2)s1)c1ccccc1)C1CCCCC1
2,6.33,COC(=O)N[C@H](C(=O)N1CCC[C@H]1c1ncc(-c2ccc(-c3ccc(-c4cnc([C@@H]5CCCN5C(=O)[C@@H](NC(=O)OC)C(C)(C)C)s4)cc3)cc2)s1)C(C)(C)C
3,9.72,COC(=O)N[C@@H](C(=O)N1CCC[C@H]1c1ncc(-c2ccc(-c3ccc(-c4cnc([C@@H]5CCCN5C(=O)[C@H](NC(=O)OC)c5ccccc5)s4)cc3)cc2)s1)c1ccccc1
4,11.52,O=C(N[C@@H](C(=O)N1CCC[C@H]1c1ncc(-c2ccc(-c3ccc(-c4cnc([C@@H]5CCCN5C(=O)[C@H](NC(=O)C5CC5)c5ccccc5)s4)cc3)cc2)s1)c1ccccc1)C1CC1
5,10.70,O=C(N[C@@H](C(=O)N1CCC[C@H]1c1ncc(-c2ccc(-c3ccc(-c4cnc([C@@H]5CCCN5C(=O)[C@H](NC(=O)N5CCOCC5)c5ccccc5)s4)cc3)cc2)s1)c1ccccc1)N1CCOCC1
6,8.54,O=C(Cc1ccccc1)N[C@H](C(=O)N1CCC[C@H]1c1ncc(-c2ccc(-c3ccc(-c4cnc([C@@H]5CCCN5C(=O)[C@H](NC(=O)Cc5ccccc5)c5ccccc5)s4)cc3)cc2)s1)c1ccccc1
7,7.39,COC(=O)N[C@H](C(=O)N1CCC[C@H]1c1ncc(-c2ccc(-c3ccc(-c4cnc([C@@H]5CCCN5C(=O)[C@@H](NC(=O)OC)c5ccccc5)s4)cc3)cc2)s1)c1ccccc1
8,10.80,CCC(=O)N[C@@H](C(=O)N1CCC[C@H]1c1ncc(-c2ccc(-c3ccc(-c4cnc([C@@H]5CCCN5C(=O)[C@H](NC(=O)CC)c5ccccc5)s4)cc3)cc2)s1)c1ccccc1
9,< 4.30,O=C(N[C@@H](C(=O)N1CCC[C@H]1c1ncc(-c2ccc(-c3ccc(-c4cnc([C@@H]5CCCN5C(=O)[C@H](NC(=O)C5CC5)C5CCCCC5)s4)cc3)cc2)s1)C1CCCCC1)C1CC1
10,10.77,O=C(CCn1cccc1)N[C@@H](C(=O)N1CCC[C@H]1c1ncc(-c2ccc(-c3ccc(-c4cnc([C@@H]5CCCN5C(=O)[C@H](NC(=O)CCn5cccc5)c5ccccc5)s4)cc3)cc2)s1)c1ccccc1
11,6.45,CCCC[C@@H](NC(=O)C1CC1)C(=O)N1CCC[C@H]1c1ncc(-c2ccc(-c3ccc(-c4cnc([C@@H]5CCCN5C(=O)[C@@H](CCCC)NC(=O)C5CC5)s4)cc3)cc2)s1
12,7.80,O=C(CCN1CCCCC1)N[C@H](C(=O)N1CCC[C@H]1c1ncc(-c2ccc(-c3ccc(-c4cnc([C@@H]5CCCN5C(=O)[C@H](NC(=O)CCN5CCCCC5)c5ccccc5)s4)cc3)cc2)s1)c1ccccc1
13,9.89,O=C(Cc1ccccc1)N[C@@H](C(=O)N1CCC[C@H]1c1ncc(-c2ccc(-c3ccc(-c4cnc([C@@H]5CCCN5C(=O)[C@H](NC(=O)Cc5ccccc5)c5ccccc5)s4)cc3)cc2)s1)c1ccccc1
14,10.89,CCCC(=O)N[C@@H](C(=O)N1CCC[C@H]1c1ncc(-c2ccc(-c3ccc(-c4cnc([C@@H]5CCCN5C(=O)[C@H](NC(=O)CCC)c5ccccc5)s4)cc3)cc2)s1)c1ccccc1
15,7.64,O=C(CCN1CCCC1)N[C@H](C(=O)N1CCC[C@H]1c1ncc(-c2ccc(-c3ccc(-c4cnc([C@@H]5CCCN5C(=O)[C@H](NC(=O)CCN5CCCC5)c5ccccc5)s4)cc3)cc2)s1)c1ccccc1
16,10.46,O=C(N[C@@H](C(=O)N1CCC[C@H]1c1ncc(-c2ccc(-c3ccc(-c4cnc([C@@H]5CCCN5C(=O)[C@H](NC(=O)N5CCCC5)c5ccccc5)s4)cc3)cc2)s1)c1ccccc1)N1CCCC1
